Measured values taken from US11466020B2, “Compounds and compositions for inhibition and elimination of Zika infection and uses for same” (Cornell University, priority 2017, dated 2022).
Counter-ions that a name gives are not always drawn.

Assays:
[1] = system: transcriptional changes induced by ZIKV (MR766 strain) infection; assay: RNA-seq analysis of ZIKV infected hNPCs; type: cell-based, human; conditions: 72 h post-inoculation, 25 μM HH or 15 μM AQ
[2] = system: hNPCs; assay: hNPC viability, proliferation, apoptosis and identity; type: cell-based, human; conditions: for ZIKV induced growth arrest or apoptosis of hNPCs: 72 h after ZIKV (MR766) infection, vs DMSO
Method: (A) Scheme of high content chemical screen. (B) Chemical structure of hit compounds. (C) Inhibitory curve and IC50 of HH or AQ on hNPCs (n=6). (D-H) Immunocytochemistry analysis (D), the quantification of the infection rate (E), the quantification of proliferation rate (F), the quantification of cell apoptosis rate (G) and the normalized cell viability (H) of hNPCs at 72 h after ZIKV (MR 766 strain) infection with or without drug treatment. Scale bars, 100 μm. The ZIKV infection rate is defined as the percentage of ZIKV E^+ cells. The proliferation rate is defined as the percentages of Ki67^+ cells. The cell apoptosis rate was defined as the percentage of cleaved-Caspase 3/CAS3^+ cells. The normalized cell viability was calculated by dividing the total cell number of each condition by the total cell number under mock infection conditions. (n=6). (I) qRT-PCR analysis to monitor the total ZIKV vRNA in the supernatant of hNPC cultures at 72 h after ZIKV infection with or without drug treatment. (J) Vero cell reinfection assay to monitor the ZIKV infectious particles in the supernatant of hNPC cultures with or without drug treatment. To perform the Vero cell reinfection assay, hNPCs at 72 h after ZIKV infection were washed three times and changed to drug free medium for an additional 24 h. Vero cells were infected with the supernatant collected from hNPCs for 2 h and changed to virus free medium for an additional 24 h. Vero cells were stained with antibody against ZIKV E and DAPI. Scale bars, 200 μm. (n=3). (K) Quantification of ZIKV infectious particles produced by ZIKV-infected hNPCs with or without compound treatment by the Vero cell reinfection assay. (L) Heatmap analysis of mock-infected hNPCs treated with DMSO (mock); mock infected hNPCs treated with 25 μM HH (HH), mock-infected hNPCs treated with 15 μM AQ (AQ), ZIKV (MR766 strain, MOI=0.125) infected hNPCs treated with DMSO (ZIKV+DMSO); ZIKV-infected hNPCs treated with 25 μM HH (ZIKV+HH), and ZIKV-infected hNPCs treated with 15 μM AQ (ZIKV+AQ). […] (M and N) Immunocytochemistry analysis (M) and quantification of the infection rate (N) of hNPCs at 72 h after ZIKV (PRVABC59 strain) infection with or without drug treatment (n=6). Scale bars, 100 μm. p values were calculated by one-way repeated measures ANOVA with a Bonferroni test for multiple comparisons. *p<0.05, **p<0.01 and ***p<0.001.
(A) Scheme to evaluate the elimination of ZIKV. At day 0, hNPCs were infected with ZIKV for 2 h. After removal of ZIKV infection medium, hNPCs were treated with drug candidates. At day 3, the culture medium was changed to fresh medium without compounds. The cells were maintained in drug-free culture until day 6 and used for immunohistochemistry and qRT-PCR. (B and C) Inhibitory curve and IC50 of HH calculated based on the infection rate (B) and normalized cell viability (C) (n=6). (D and E) Immunocytochemistry analysis (D) and the quantification of infection rate, cell apoptosis rate, and total cell number (E) of hNPCs on day 3 and day 6. Cells was fixed and stained with cleaved Caspase-3 (CAS3), ZIKV E and DAPI. Scale bars, 100 μm. (F) qRT-PCR analysis to monitor the total ZIKV vRNA in the supernatant of hNPC cultures on day 6. Scale bars, 200 μm. (n=3). (G) Vero cell reinfection assay to monitor the infective ZIKV vRNA in the supernatant of hNPC cultures at day 6 after ZIKV infection. Scale bars, 200 μm. (n=3). (H) Quantification of ZIKV infectious particles produced by ZIKV-infected hNPCs at day 6 by the Vero cell reinfection assay. (I) hNPCs with or without ZIKV infection treated with HH maintain hNPC marker expression and differentiation capacity. hNPCs with or without ZIKV MR766 infection were treated with 25 μM HH or DMSO for 3 days and then stained for SOX2, NESTIN and with DAPI. hNPCs with or without ZIKV infection and treated with HH or DMSO for 3 days were differentiated to cortical neurons. The cortical neurons were then fixed and stained for MAP2, TUJ1 and with DAPI. Scale bars, 100 μm. (n=3). […]

[3] = system: ZIKV (MR766 strain); assay: qRT-PCR of total ZIKV vRNA in supernatant of hNPC cultures; type: cell-based, Zika virus; conditions: 72 h after infection
Method: (A) Scheme of high content chemical screen. (B) Chemical structure of hit compounds. (C) Inhibitory curve and IC50 of HH or AQ on hNPCs (n=6). (D-H) Immunocytochemistry analysis (D), the quantification of the infection rate (E), the quantification of proliferation rate (F), the quantification of cell apoptosis rate (G) and the normalized cell viability (H) of hNPCs at 72 h after ZIKV (MR 766 strain) infection with or without drug treatment. Scale bars, 100 μm. The ZIKV infection rate is defined as the percentage of ZIKV E^+ cells. The proliferation rate is defined as the percentages of Ki67^+ cells. The cell apoptosis rate was defined as the percentage of cleaved-Caspase 3/CAS3^+ cells. The normalized cell viability was calculated by dividing the total cell number of each condition by the total cell number under mock infection conditions. (n=6). […] (K) Quantification of ZIKV infectious particles produced by ZIKV-infected hNPCs with or without compound treatment by the Vero cell reinfection assay. […] (M and N) Immunocytochemistry analysis (M) and quantification of the infection rate (N) of hNPCs at 72 h after ZIKV (PRVABC59 strain) infection with or without drug treatment (n=6). Scale bars, 100 μm. p values were calculated by one-way repeated measures ANOVA with a Bonferroni test for multiple comparisons. *p<0.05, **p<0.01 and ***p<0.001. […]

Row | SMILES | transcriptional changes induced by ZIKV infection (RNA-seq) [1] | ZIKV induced growth arrest or apoptosis of hNPCs [2] | cell death rate and total cell number ([2]; ZIKV infected hNPCs, day 6) | ZIKV-induced loss of cell viability ([2]; dose-dependent, compound applied 2 h post infection) | expression of neural progenitor markers SOX2 and NESTIN and differentiation capacity ([2]; hNPCs with or without ZIKV infection treated for 3 days) | cytotoxicity to hNPCs ([2]; highest dose of 100 μM) | production of ZIKV viral RNA (vRNA), qRT-PCR [3]
1 | CN1CCC2=C[C@H](O)[C@H]3OC(=O)c4cc5c(cc4[C@H]3[C@@H]21)OCO5 [HH, hippeastrine hydrobromide] | reversed the transcriptional changes | blocked ZIKV induced growth arrest or apoptosis | comparable to control mock infection conditions | successfully rescued | maintained the expression of neural progenitor markers | no obvious cytotoxicity | significantly suppressed
2 | CCN(CC)Cc1cc(Nc2ccnc3cc(Cl)ccc23)ccc1O [AQ, amodiaquine dihydrochloride dihydrate] | reversed the transcriptional changes | blocked ZIKV induced growth arrest or apoptosis |  |  |  |  | significantly suppressed
